Experimental data published in US12134616B2, “Tricyclic pesticidal compounds” (BASF SE, priority 2018, dated 2024).

Legend:
Format in all cases: in vivo
[1] = test system: boll weevil (Anthonomus grandis); test: Boll weevil (Anthonomus grandis) microtiter diet test, egg and larval mortality; conditions: 120 h, sprayed onto insect diet, 5 days, read-out: mortality (egg and larval) in comparison with untreated controls
Procedure: (§1) If not otherwise specified, the test solutions are prepared as follows: The active compound is dissolved at the desired concentration in a mixture of 1:1 (vol:vol) distilled water:acteone. The test solution is prepared at the day of use. Test solutions are prepared in general at concentrations of 1000 ppm, 500 ppm, 300 ppm, 100 ppm and 30 ppm (wt/vol).
(§2) For evaluating control of boll weevil (Anthonomus grandis) the test unit consisted of 96-well-microtiter plates containing an insect diet and 5-10 A. grandis eggs. The compounds were formulated using a solution containing 75% v/v water and 25% v/v DMSO. Different concentrations of formulated compounds were sprayed onto the insect diet at 5 μl, using a custom built micro atomizer, at two replications. After application, microtiter plates were incubated at about 25±1° C. and about 75±5% relative humidity for 5 days. Egg and larval mortality was then visually assessed.

[2] = test system: green peach aphid (Myzus persicae); test: Green peach aphid (Myzus persicae) artificial diet/membrane test, systemic; conditions: 72 h, pipetted into aphid diet, 3 days, read-out: mortality (aphid) in comparison with untreated controls
Procedure: as §1
For evaluating control of green peach aphid (Myzus persicae) through systemic means the test unit consisted of 96-well-microtiter plates containing liquid artificial diet under an artificial membrane. The compounds were formulated using a solution containing 75% v/v water and 25% v/v DMSO. Different concentrations of formulated compounds were pipetted into the aphid diet, using a custom built pipetter, at two replications. After application, 5-8 adult aphids were placed on the artificial membrane inside the microtiter plate wells. The aphids were then allowed to suck on the treated aphid diet and incubated at about 23±1° C. and about 50±5% relative humidity for 3 days. Aphid mortality and fecundity was then visually assessed.

[3] = test system: vetch aphid (Megoura viciae); test: Vetch aphid (Megoura viciae) broad bean leaf disk test, contact or systemic; conditions: foliar, 120 h, sprayed onto leaf disks, 5 days, read-out: mortality (aphid) in comparison with untreated controls
Procedure: as §1
For evaluating control of vetch aphid (Megoura viciae) through contact or systemic means the test unit consisted of 24-well-microtiter plates containing broad bean leaf disks.
The compounds were formulated using a solution containing 75% v/v water and 25% v/v DMSO. Different concentrations of formulated compounds were sprayed onto the leaf disks at 2.5 μl, using a custom built micro atomizer, at two replications. After application, the leaf disks were air-dried and 5-8 adult aphids placed on the leaf disks inside the microtiter plate wells. The aphids were then allowed to suck on the treated leaf disks and incubated at about 23±1° C. and about 50±5% relative humidity for 5 days. Aphid mortality and fecundity was then visually assessed.

[4] = test system: tobacco budworm (Heliothis virescens); test: Tobacco budworm (Heliothis virescens) microtiter diet test, egg and larval mortality; conditions: 120 h, sprayed onto insect diet, 5 days, read-out: mortality (egg and larval) in comparison with untreated controls
Procedure: as §1
as §2, with “of tobacco budworm (Heliothis virescens)” for “of boll weevil (Anthonomus grandis)”, “and 15-25 H. virescens” for “and 5-10 A. grandis”, “at 10” for “at 5”, “about 28±1°” for “about 25±1°”, “about 80±5%” for “about 75±5%”

Measured: mortality at 2500 ppm

CCS(=O)(=O)c1cc(C(F)(F)F)cnc1-c1nc2cnc3c(OC(F)(F)F)cccc3c2n1C [Compound I.1, 2-[3-ethylsulfonyl-5-(trifluoromethyl)-2-pyridyl]-1-methyl-6-(trifluoromethoxy)imidazo[4,5-c]quinoline]
> 75%: all assays above

CCSc1cc(C(F)(F)F)cnc1-c1nc2cnc3c(OC(F)(F)F)cccc3c2n1C [Compound I.5, 2-[3-ethylsulfanyl-5-(trifluoromethyl)-2-pyridyl]-1-methyl-6-(trifluoromethoxy)imidazo[4,5-c]quinoline]
> 75%: [1] | [4]

CCS(=O)(=O)c1cccnc1-c1cn2c(ccc3c(C(F)(F)F)cc(C(F)(F)F)nc32)n1 [Compound I.54, 8-(3-ethylsulfonyl-2-pyridyl)-2,4-bis(trifluoromethyl)imidazo[1,2-a][1,8]naphthyridine]
> 75%: [1] | [3] | [4]

CCS(=O)(=O)c1cccnc1-c1nc2cc(C(F)(F)F)c3ccccc3n2n1 [Compound I.65, 2-(3-ethylsulfonyl-2-pyridyl)-5-(trifluoromethyl)-[1,2,4]triazolo[1,5-a]quinoline]
> 75%: all assays above
